# pEC50: −log10 of the molar value.
# Target: T1, GLP-1R (Homo sapiens, UniProt P43220)
# T1 construct: host or cells: CRE-bla CHO-K1
# Assay: EC20 GLP-1(9-36) PAM cAMP Assay: dose response of compound in the presence of fixed concentration of GLP-1(9-36)
# Assay type: cell-based
# Details: GLP-1R CRE-bla CHO-K1 cells, in presence of fixed concentration of GLP-1(9-36), 30 min at 37° C.
# Experimental: EC20 GLP-1(9-36) PAM cAMP Assay: Dose Response of Compound in the Presence of Fixed Concentration of GLP-1 (9-36).
# GLP-1R CRE-bla CHO-K1 cells cultured in growth medium (DMEM-High glucose, 10% dialyzed FBS, 0.1 mM NEAA, 25 mM Hepes, 100 U/mL penicillin/100 μg/mL streptomycin, 5 μg/mL Blasticidin, 600 μg/mL Hygromycin) were trypsinized and plated in suspension into 384 well white flat bottom plates at 5000 cells/well in 12 μL assay buffer (Hanks Balanced Salt solution, 10 mM Hepes, 0.1% BSA, 10 pH 7.4). A 5× compound dose response curve (12-point) was generated in assay buffer containing 1.5 mM IBMX, 4% DMSO. GLP-1(9-36) was diluted to 4.2 μM in assay buffer containing 1.5 mM IBMX and 4% DMSO. The 5× compound dose response was added (3 μL), followed by 0.5 μL of GLP-1(9-36) and cells were incubated for 30 min at 37° C. Direct detection of cAMP was carried out using DiscoveRx HitHunter cAMP kit according to manufacturer's instructions and luminescence was read using a SpectraMax M5 plate reader. Luminescence was converted to total cAMP using a cAMP standard curve and data was analyzed by non-linear regression to determine the EC50 and Emax.
# T1 sequence (P43220 24-463): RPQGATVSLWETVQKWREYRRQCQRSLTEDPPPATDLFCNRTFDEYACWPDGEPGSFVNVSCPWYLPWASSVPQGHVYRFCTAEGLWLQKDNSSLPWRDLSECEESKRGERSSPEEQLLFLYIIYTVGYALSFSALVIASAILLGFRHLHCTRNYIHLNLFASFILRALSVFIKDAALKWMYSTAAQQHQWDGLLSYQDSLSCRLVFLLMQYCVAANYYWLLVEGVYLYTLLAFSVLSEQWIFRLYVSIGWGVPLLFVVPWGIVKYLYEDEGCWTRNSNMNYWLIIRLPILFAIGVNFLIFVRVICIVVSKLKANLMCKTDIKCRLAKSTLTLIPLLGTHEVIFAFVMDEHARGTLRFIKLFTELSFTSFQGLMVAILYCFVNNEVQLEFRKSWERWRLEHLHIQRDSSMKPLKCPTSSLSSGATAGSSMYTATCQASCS
# T1 sequence (P01275 100-127 partner limits assumed): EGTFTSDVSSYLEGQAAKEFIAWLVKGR
row,Compound,pEC50
1,CCCC1CCC(C2CC=C(c3cnc(-c4ccc(C[C@H](NC(=O)c5ccc(C(C)(C)C)s5)C(=O)N5C6CCC5C(C(=O)O)C6)cc4)nc3)CC2)CC1 (some centres unmarked) [Compound 80],5.60 to 6.30
2,C[C@@H](NC(=O)[C@H](Cc1ccc(-c2ncc(C3=CCCC3)cn2)cc1)NC(=O)c1ccc(C(C)(C)C)s1)C(=O)O [Compound 63],5.60 to 6.30
3,CCCCCC1CCC(C2CC=C(c3cnc(-c4ccc(C[C@H](NC(=O)c5ccc(C(C)(C)C)s5)C(=O)N5CCC[C@H]5C(=O)O)cc4)nc3)CC2)CC1 (some centres unmarked) [Compound 5],5.60 to 6.30
4,CCCC1CCC(C2CC=C(c3cnc(-c4ccc(C[C@H](NC(=O)c5ccc(C(C)(C)C)s5)C(=O)N[C@H](C(=O)O)C(C)C)cc4)nc3)CC2)CC1 (some centres unmarked) [Compound 75],5.60 to 6.30
5,C[C@@H](NC(=O)[C@H](Cc1ccc(-c2ncc(C3=CC4CC[C@]3(C)C4(C)C)cn2)cc1)NC(=O)c1ccc(C(C)(C)C)s1)C(=O)O [Compound 58],5.30 to 5.60
6,CC[C@H]1CC[C@H](C2CC=C(c3cnc(-c4ccc(C[C@H](NC(=O)c5ccc(CC(C)C)cc5)C(=O)N5CC(C(=O)O)C5)cc4)nc3)CC2)CC1 (some centres unmarked) [Compound 102],5.60 to 6.30
7,CC[C@H]1CC[C@H](C2CCC(c3cnc(-c4ccc(C[C@H](NC(=O)c5ccc(C(C)(C)C)s5)C(=O)N5CC(C(=O)O)C5)cc4)nc3)CC2)CC1 (some centres unmarked) [Compound 125],5.60 to 6.30
8,CCC1CC=C(c2cnc(-c3ccc(C[C@H](NC(=O)c4ccc(C(C)(C)C)s4)C(=O)N[C@H](C)C(=O)O)cc3)nc2)CC1 (some centres unmarked) [Compound 51],5.60 to 6.30
9,CC(C)CC1CCC(C2CC=C(c3cnc(-c4ccc(C[C@H](NC(=O)c5ccc(C(C)(C)C)s5)C(=O)N5CC(C(=O)O)C5)cc4)nc3)CC2)CC1 (some centres unmarked) [Compound 86],> 6.30
10,CC[C@H]1CC[C@H](C2CC=C(c3cnc(-c4ccc(C[C@H](NC(=O)c5ccc(C(C)(C)C)s5)C(=O)NCCC(=O)O)cc4)nc3)CC2)CC1 (some centres unmarked) [Compound 107],> 6.30
11,CCCC1CCC(C2CC=C(c3cnc(-c4ccc(C[C@H](NC(=O)c5ccc(CC(C)C)s5)C(=O)N5CC(C(=O)O)C5)cc4)nc3)CC2)CC1 (some centres unmarked) [Compound 32],> 6.30
12,CC(C)(C)c1ccc(C(=O)N[C@@H](Cc2ccc(-c3ncc(C4=CCC([C@H]5CC[C@H](C)CC5)CC4)cn3)cc2)C(=O)NS(C)(=O)=O)s1 (some centres unmarked) [Compound 115],> 6.30
13,CCCCCC1CCC(C2CC=C(c3cnc(-c4ccc(C[C@H](NC(=O)c5ccc(C(C)(C)C)s5)C(=O)N5CC[C@H](C(=O)O)C5)cc4)nc3)CC2)CC1 (some centres unmarked) [Compound 3],> 6.30
14,CC(C)C1CC=C(c2cnc(-c3ccc(C[C@H](NC(=O)c4ccc(C(C)(C)C)s4)C(=O)N4CC(C(=O)O)C4)cc3)nc2)CC1 (some centres unmarked) [Compound 40],5.60 to 6.30
15,"CCCC1CCC(C2CC=C(c3cnc(-c4ccc(C[C@H](NC(=O)c5ccc(CC)s5)C(=O)N5CC(C(=O)O)C5)cc4)nc3)CC2)CC1 (stereo partly drawn) [Compound 31, 1-((S)-2-(5-ethylthiophene-2-carboxamido)-3-(4-(5-((1RS,1′s,4′RS)-4′-propyl-[1,1′-bi(cyclohexan)]-3-en-4-yl)pyrimidin-2-yl)phenyl)propanoyl)azetidine-3-carboxylic acid]",> 6.30
16,CC(C)(C)c1ccc(C(=O)N[C@@H](Cc2ccc(-c3ncc(C4=CCC(C(F)(F)F)CC4)cn3)cc2)C(=O)N2CC(C(=O)O)C2)s1 (some centres unmarked) [Compound 37],5.60 to 6.30
17,CCO[C@H]1CC[C@H](C2CC=C(c3cnc(-c4ccc(C[C@H](NC(=O)c5ccc(C(C)(C)C)s5)C(=O)N5CC(C(=O)O)C5)cc4)nc3)CC2)CC1 (some centres unmarked) [Compound 84],> 6.30
18,CCCC1CCC(C2CCC(c3cnc(-c4ccc(C[C@H](NC(=O)c5ccc(CC)cc5)C(=O)N5CC(C(=O)O)C5)cc4)nc3)CC2)CC1 (some centres unmarked) [Compound 20],5.00 to 5.30
19,CC(C)(C)c1ccc(C(=O)N[C@@H](Cc2ccc(-c3ncc(C4=CCC(c5ccccc5)CC4)cn3)cc2)C(=O)N2CC(C(=O)O)C2)s1 (some centres unmarked) [Compound 11],> 6.30
20,CC1(C)COC2(CC=C(c3cnc(-c4ccc(CC(NC(=O)c5ccc(C(C)(C)C)s5)C(=O)N5CC(C(=O)O)C5)cc4)nc3)CC2)OC1 (centres unmarked) [Compound 43],5.00 to 5.30
21,CC(C)(C)c1ccc(C(=O)N[C@@H](Cc2ccc(-c3ncc(C4CCC(C(C)(C)C)CC4)cn3)cc2)C(=O)N2CC(C(=O)O)C2)s1 (some centres unmarked) [Compound 41],5.00 to 5.30

# Now from value to compound:
row,pEC50,Compound
1,> 6.30,CCC[C@H]1CC[C@H](C2CC=C(c3cnc(-c4ccc(C[C@H](NC(=O)c5ccc(C(C)(C)C)s5)C(=O)N5CC(C(=O)O)C5)cc4)nc3)C(C)C2)CC1 (some centres unmarked) [Compound 87]
2,> 6.30,CCO[C@H]1CC[C@@H](C2CC=C(c3cnc(-c4ccc(C[C@H](NC(=O)c5ccc(C(C)(C)C)s5)C(=O)N5CC(C(=O)O)C5)cc4)nc3)CC2)CC1 (some centres unmarked) [Compound 83]
3,> 6.30,"CCCC1CCC(C2CC=C(c3cnc(-c4ccc(C[C@H](NC(=O)c5ccc(C(C)(C)C)s5)C(=O)N5CC(C(=O)O)C5)cc4)nc3)CC2)CC1 (mixture of isomers) [Compound 6, 1-((2S)-2-(5-(tert-butyl)thiophene-2-carboxamido)-3-(4-(5-(4′-propyl-[1,1′-bi(cyclohexan)]-3-en-4-yl)pyrimidin-2-yl)phenyl)propanoyl)azetidine-3-carboxylic acid]"
4,> 6.30,CC(C)(C)c1ccc(C(=O)N[C@@H](Cc2ccc(-c3ncc(C4=CCC([C@H]5CC[C@H](C)CC5)CC4)cn3)cc2)C(=O)N2CCC[C@H]2C(=O)O)s1 (some centres unmarked) [Compound 111]
5,> 6.30,CCCC1CCC(C2CC=C(c3cnc(-c4ccc(C[C@H](NC(=O)c5ccc(C6(C)CC6)cc5)C(=O)N5CC(C(=O)O)C5)cc4)nc3)CC2)CC1 (some centres unmarked) [Compound 26]
6,> 6.30,"CC(C)(C)c1ccc(C(=O)N[C@@H](Cc2ccc(-c3ncc(C4=CCC([C@H]5CC[C@H](C)CC5)CC4)cn3)cc2)C(=O)O)s1 (mixture of isomers) [Compound 123, (S)-2-(5-(tert-butyl)thiophene-2-carboxamido)-3-(4-(5-((1RS,1′r,4′RS)-4′-methyl-[1,1′-bi(cyclohexan)]-3-en-4-yl)pyrimidin-2-yl)phenyl)propanoic acid]"
7,> 6.30,CC[C@H]1CC[C@H](C2CC=C(c3cnc(-c4ccc(C[C@H](NC(=O)c5ccc(C(F)(F)F)cc5)C(=O)N5CC(C(=O)O)C5)cc4)nc3)CC2)CC1 (some centres unmarked) [Compound 100]
8,> 6.30,"CCCCCC1CCC(C2CC=C(c3cnc(-c4ccc(C[C@H](NC(=O)c5ccc(C(C)(C)C)s5)C(=O)N5CC(C(=O)O)C5)cc4)nc3)CC2)CC1 (mixture of isomers) [Compound 4, 1-((2S)-2-(5-(tert-butyl)thiophene-2-carboxamido)-3-(4-(5-(4′-pentyl-[1,1′-bi(cyclohexan)]-3-en-4-yl)pyrimidin-2-yl)phenyl)propanoyl)azetidine-3-carboxylic acid]"
9,> 6.30,CCc1ccc(C(=O)N[C@@H](Cc2ccc(-c3ncc(C4=CCC([C@H]5CC[C@H](CC)CC5)CC4)cn3)cc2)C(=O)N2CC(C(=O)O)C2)s1 (some centres unmarked) [Compound 93]
10,> 6.30,CC[C@H]1CC[C@H](C2CC=C(c3cnc(-c4ccc(C[C@H](NC(=O)c5ccc(C6CC6)cc5)C(=O)N5CC(C(=O)O)C5)cc4)nc3)CC2)CC1 (some centres unmarked) [Compound 104]
11,> 6.30,CCc1ccc(C(=O)N[C@@H](Cc2ccc(-c3ncc(C4=CCC([C@H]5CC[C@H](C)CC5)CC4)cn3)cc2)C(=O)N2CC(C(=O)O)C2)s1 (some centres unmarked) [Compound 91]
12,> 6.30,CCC[C@H]1CC[C@H](C2CC=C(c3cnc(-c4ccc(C[C@H](NC(=O)c5ccc(CC(C)C)s5)C(=O)N5CC(C(=O)O)C5)cc4)nc3)CC2)CC1 (some centres unmarked) [Compound 118]
13,> 6.30,"CC[C@H]1CC[C@H](C2CC=C(c3cnc(-c4ccc(C[C@H](NC(=O)c5ccc(C(C)(C)C)s5)C(=O)N5CC[C@H](C(=O)O)C5)cc4)nc3)CC2)CC1 (stereo partly drawn) [Compound 110, (S)-1-((S)-2-(5-(tert-butyl)thiophene-2-carboxamido)-3-(4-(5-((1RS,1′r,4′RS)-4′-ethyl-[1,1′-bi(cyclohexan)]-3-en-4-yl)pyrimidin-2-yl)phenyl)propanoyl)pyrrolidine-3-carboxylic acid]"
14,> 6.30,CCCC1CCC(C2CC=C(c3cnc(-c4ccc(C[C@H](NC(=O)c5ccc(C(C)(C)C)s5)C(=O)N[C@@H](CO)C(=O)O)cc4)nc3)CC2)CC1 (some centres unmarked) [Compound 73]
